In brackets after ≈: the same amount, converted by molar mass. Where two headings read alike, the source gives them in different places. Numbered stars: 1 amine (or outer) side, 2 acyl side, 3 side chain; on linkers, the order of the positions; unused ones are H or OH. Bridge positions count the residues as written; N and C are the ends. Side chains are listed from the residue outwards. Peptide text beside a SMILES is read from it. * marks the point of attachment. C20 diacid = O=C(O)CCCCCCCCCCCCCCCCCCC(=O)*; γGlu = O=C(O)[C@H](CCC(=O)[*:2])N[*:1]
How the values were obtained:
[1] = ASSAY (III) ThT fibrillation assay for physical stability; assay type: physicochemical
Method in brief: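 Physical stability scored by ThT fluorescence (444 nm excitation, 485 nm emission) tracked every 20 min during 37 °C incubation with 960 rpm shaking, ThT at 1 μM final. Values are replicate means with SD at chosen times; HPLC against pramlintide standard gives initial and post-assay soluble concentrations.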

[2] = ASSAY (IV) determination of solubility; assay type: physicochemical
Method in brief: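 Solubility measured by UPLC of supernatant after centrifugation, following 18 h at room temperature. Peptide ([…] in water) was diluted 1:1 into 100 mM glycylglycine (pH 3.0, 4.0, 5.0) or bistrispropane (pH 6.0-8.0).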

[3] = bistrispropane buffer, pH 6.5, read-out: Solubility pH 6.5 Concentration
[4] = bistrispropane buffer, pH 7.5, read-out: Solubility pH 7.5 Concentration
[5] = bistrispropane buffer, pH 6.0, read-out: Solubility pH 6.0 Concentration
[6] = bistrispropane buffer, pH 7.0, read-out: Solubility pH 7.0 Concentration
[7] = bistrispropane buffer, pH 8.0, read-out: Solubility pH 8.0 Concentration
[8] = glycylglycine buffer, pH 3.0, read-out: Solubility pH 3.0 Concentration
[9] = glycylglycine buffer, pH 4.0, read-out: Solubility pH 4.0 Concentration
[10] = glycylglycine buffer, pH 5.0, read-out: Solubility pH 5.0 Concentration

Compound | ThT pH 4.0 lag time (h) [1] [h] | solubility at 18 h [2, 3] [µM] | solubility at 18 h [2, 4] [µM] | solubility at 18 h [2, 5] [µM] | solubility at 18 h [2, 6] [µM] | solubility at 18 h [2, 7] [µM] | solubility at 18 h [2, 8] [µM] | solubility at 18 h [2, 9] [µM] | solubility at 18 h [2, 10] [µM] | solubility at 18 h ([2]; pH 3.0, read-out: Solubility pH 3.0 Concentration) [µM] | solubility at 18 h ([2]; pH 4.0, read-out: Solubility pH 4.0 Concentration) [µM] | solubility at 18 h ([2]; pH 5.0, read-out: Solubility pH 5.0 Concentration) [µM] | solubility at 18 h ([2]; pH 6.0, read-out: Solubility pH 6.0 Concentration) [µM] | solubility at 18 h ([2]; pH 6.5, read-out: Solubility pH 6.5 Concentration) [µM] | solubility at 18 h ([2]; pH 7.0, read-out: Solubility pH 7.0 Concentration) [µM] | solubility at 18 h ([2]; pH 7.5, read-out: Solubility pH 7.5 Concentration) [µM] | solubility at 18 h ([2]; pH 8.0, read-out: Solubility pH 8.0 Concentration) [µM]
CC[C@H](C)[C@H](NC(=O)[C@H](C)NC(=O)CNC(=O)[C@H](Cc1ccccc1)NC(=O)[C@H](CC(N)=O)NC(=O)[C@@H]1CCCN1C(=O)[C@H](CO)NC(=O)[C@H](CO)NC(=O)[C@H](Cc1c[nH]cn1)NC(=O)[C@H](CCCNC(=N)N)NC(=O)[C@H](CC(C)C)NC(=O)[C@H](Cc1ccccc1)NC(=O)[C@H](C)NC(=O)[C@H](C)NC(=O)[C@H](CC(C)C)NC(=O)[C@H](CCCNC(=N)N)NC(=O)[C@H](CCC(N)=O)NC(=O)[C@@H](NC(=O)[C@H](C)NC(=O)[C@@H]1CSSC[C@H](NC(=O)[C@@H](N)CCCCNC(=O)CC[C@H](NC(=O)CCCCCCCCCCCCCCCCCCC(=O)O)C(=O)O)C(=O)N[C@@H](CC(N)=O)C(=O)N[C@@H]([C@@H](C)O)C(=O)N[C@@H](C)C(=O)N[C@@H]([C@@H](C)O)C(=O)N1)[C@@H](C)O)C(=O)N1CCC[C@H]1C(=O)N[C@@H](CO)C(=O)N[C@@H](CO)C(=O)N[C@H](C(=O)N[C@@H](CC(N)=O)C(=O)N[C@H](C(=O)NCC(=O)N1CCC[C@H]1C(=O)N[C@@H](CC(N)=O)C(=O)N[C@H](C(=O)N[C@@H](Cc1ccc(O)cc1)C(N)=O)[C@@H](C)O)C(C)C)[C@@H](C)O [Example 94] (H-K([γGlu-C20 diacid])CNTATCATQRLAAFLRHSSPNFGAIPSSTNVGPNTY-NH2; disulfide 2-7 (inferred)) | 10 | ≥ 200 | ≥ 200 | ≥ 200 | ≥ 200 | ≥ 200 | ≥ 200 | ≥ 200 | ≥ 200 |  |  |  |  |  |  |  | 
CC[C@H](C)[C@H](NC(=O)[C@H](C)NC(=O)CNC(=O)[C@H](Cc1ccccc1)NC(=O)[C@H](CC(N)=O)NC(=O)[C@@H]1CCCN1C(=O)[C@H](CO)NC(=O)[C@H](CO)NC(=O)[C@H](Cc1c[nH]cn1)NC(=O)[C@H](CCCNC(=N)N)NC(=O)[C@H](CC(C)C)NC(=O)[C@H](Cc1ccccc1)NC(=O)[C@H](C)NC(=O)[C@H](C)NC(=O)[C@H](CC(C)C)NC(=O)[C@H](CCCNC(=N)N)NC(=O)[C@H](CCC(N)=O)NC(=O)[C@@H](NC(=O)[C@H](C)NC(=O)[C@@H]1CSSC[C@H](NC(=O)[C@H](CCCNC(=N)N)NC(=O)CNC(=O)CC[C@H](NC(=O)CCCCCCCCCCCCCCCCCCC(=O)O)C(=O)O)C(=O)N[C@@H](CC(N)=O)C(=O)N[C@@H]([C@@H](C)O)C(=O)N[C@@H](C)C(=O)N[C@@H]([C@@H](C)O)C(=O)N1)[C@@H](C)O)C(=O)N1CCC[C@H]1C(=O)N[C@@H](CO)C(=O)N[C@@H](CO)C(=O)N[C@H](C(=O)N[C@@H](CC(N)=O)C(=O)N[C@H](C(=O)NCC(=O)N[C@@H](Cc1c[nH]cn1)C(=O)N[C@@H](CC(N)=O)C(=O)N[C@H](C(=O)N[C@@H](Cc1ccc(O)cc1)C(N)=O)[C@@H](C)O)C(C)C)[C@@H](C)O [Example 101] ({C20 diacid-γGlu}-GRCNTATCATQRLAAFLRHSSPNFGAIPSSTNVGHNTY-NH2; disulfide 3-8) | 45 | ≥ 200 | 69 (≈ 309 µg/mL) | ≥ 200 | 182 (≈ 814 µg/mL) | 83 (≈ 371 µg/mL) | ≥ 200 | ≥ 200 | ≥ 200 |  |  |  |  |  |  |  | 
CC[C@H](C)[C@H](NC(=O)[C@H](C)NC(=O)CNC(=O)[C@H](Cc1ccccc1)NC(=O)[C@H](CC(N)=O)NC(=O)[C@@H]1CCCN1C(=O)[C@H](CO)NC(=O)[C@H](CO)NC(=O)[C@H](Cc1c[nH]cn1)NC(=O)[C@H](CCCNC(=N)N)NC(=O)[C@H](CC(C)C)NC(=O)[C@H](Cc1ccccc1)NC(=O)[C@H](Cc1c[nH]cn1)NC(=O)[C@H](C)NC(=O)[C@H](CC(C)C)NC(=O)[C@H](CCCNC(=N)N)NC(=O)[C@H](CCC(N)=O)NC(=O)[C@@H](NC(=O)[C@H](C)NC(=O)[C@@H]1CSSC[C@H](NC(=O)[C@H](CCCNC(=N)N)NC(=O)CNC(=O)CC[C@H](NC(=O)CCCCCCCCCCCCCCCCCCC(=O)O)C(=O)O)C(=O)N[C@@H](CC(N)=O)C(=O)N[C@@H]([C@@H](C)O)C(=O)N[C@@H](C)C(=O)N[C@@H]([C@@H](C)O)C(=O)N1)[C@@H](C)O)C(=O)N1CCC[C@H]1C(=O)N[C@@H](CO)C(=O)N[C@@H](CO)C(=O)N[C@H](C(=O)N[C@@H](CC(N)=O)C(=O)N[C@H](C(=O)NCC(=O)N1CCC[C@H]1C(=O)N[C@@H](CC(N)=O)C(=O)N[C@H](C(=O)N[C@@H](Cc1ccc(O)cc1)C(N)=O)[C@@H](C)O)C(C)C)[C@@H](C)O [Example 102] ({C20 diacid-γGlu}-GRCNTATCATQRLAHFLRHSSPNFGAIPSSTNVGPNTY-NH2; disulfide 3-8 (inferred)) | 26 | ≥ 200 | 88 (≈ 396 µg/mL) | ≥ 200 | 154 (≈ 693 µg/mL) | 113 (≈ 508 µg/mL) | ≥ 200 | 197 (≈ 886 µg/mL) | 195 (≈ 877 µg/mL) |  |  |  |  |  |  |  | 
CC[C@H](C)[C@H](NC(=O)[C@H](C)NC(=O)CNC(=O)[C@H](Cc1ccccc1)NC(=O)[C@H](CC(N)=O)NC(=O)[C@@H]1CCCN1C(=O)[C@H](CO)NC(=O)[C@H](CO)NC(=O)[C@H](Cc1c[nH]cn1)NC(=O)[C@H](CCCNC(=N)N)NC(=O)[C@H](CC(C)C)NC(=O)[C@H](Cc1ccccc1)NC(=O)[C@H](C)NC(=O)[C@H](C)NC(=O)[C@H](CC(C)C)NC(=O)[C@H](CCCNC(=N)N)NC(=O)[C@H](CCC(N)=O)NC(=O)[C@@H](NC(=O)[C@H](C)NC(=O)[C@@H]1CSSC[C@H](NC(=O)[C@H](CCCNC(=N)N)NC(=O)CNC(=O)CC[C@H](NC(=O)CCCCCCCCCCCCCCCCCCC(=O)O)C(=O)O)C(=O)N[C@@H](CC(N)=O)C(=O)N[C@@H]([C@@H](C)O)C(=O)N[C@@H](C)C(=O)N[C@@H]([C@@H](C)O)C(=O)N1)[C@@H](C)O)C(=O)N1CCC[C@H]1C(=O)N[C@@H](CO)C(=O)N[C@@H](CO)C(=O)N[C@H](C(=O)N[C@@H](CC(N)=O)C(=O)N[C@H](C(=O)NCC(=O)N1CCC[C@H]1C(=O)N[C@@H](CC(N)=O)C(=O)N[C@H](C(=O)N[C@@H](Cc1ccc(O)cc1)C(N)=O)[C@@H](C)O)C(C)C)[C@@H](C)O [Example 103] ({C20 diacid-γGlu}-GRCNTATCATQRLAAFLRHSSPNFGAIPSSTNVGPNTY-NH2; disulfide 3-8) | 45 |  |  |  |  |  |  |  |  | ≥ 200 | ≥ 200 | ≥ 200 | ≥ 200 | ≥ 200 | ≥ 200 | 141 (≈ 625 µg/mL) | 194 (≈ 860 µg/mL)
CC[C@H](C)[C@H](NC(=O)[C@H](C)NC(=O)CNC(=O)[C@H](Cc1ccccc1)NC(=O)[C@H](CC(N)=O)NC(=O)[C@@H]1CCCN1C(=O)[C@H](CO)NC(=O)[C@H](CO)NC(=O)[C@H](Cc1c[nH]cn1)NC(=O)[C@H](CCCNC(=N)N)NC(=O)[C@H](CC(C)C)NC(=O)[C@H](Cc1ccccc1)NC(=O)[C@H](CCC(=O)O)NC(=O)[C@H](C)NC(=O)[C@H](CC(C)C)NC(=O)[C@H](CCCNC(=N)N)NC(=O)[C@H](CCC(N)=O)NC(=O)[C@@H](NC(=O)[C@H](C)NC(=O)[C@@H]1CSSC[C@H](NC(=O)[C@@H](N)CCCCNC(=O)CC[C@H](NC(=O)CC[C@H](NC(=O)CCCCCCCCCCCCCCCCCCC(=O)O)C(=O)O)C(=O)O)C(=O)N[C@@H](CC(N)=O)C(=O)N[C@@H]([C@@H](C)O)C(=O)N[C@@H](C)C(=O)N[C@@H]([C@@H](C)O)C(=O)N1)[C@@H](C)O)C(=O)N1CCC[C@H]1C(=O)N[C@@H](CO)C(=O)N[C@@H](CO)C(=O)N[C@H](C(=O)N[C@@H](CC(N)=O)C(=O)N[C@H](C(=O)NCC(=O)N[C@@H](CCCNC(=N)N)C(=O)N[C@@H](CCC(=O)O)C(=O)N[C@H](C(=O)N[C@@H](Cc1ccc(O)cc1)C(N)=O)[C@@H](C)O)C(C)C)[C@@H](C)O [Example 105] (H-K([γGlu-γGlu-C20 diacid])CNTATCATQRLAEFLRHSSPNFGAIPSSTNVGRETY-NH2; disulfide 2-7; N-terminus assumed) | 45 | ≥ 200 | ≥ 200 | ≥ 200 | ≥ 200 | ≥ 200 | ≥ 200 | ≥ 200 | ≥ 200 |  |  |  |  |  |  |  | 
